Values quoted from earlier work as cited in US20140081110A1, “ELECTROPHYSIOLOGICAL DIAGNOSIS AND TREATMENT FOR ASTHMA” (University of Liverpool, priority 2011, published 2014).

Test system: normal airway
Settings: UK guidance on asthma (British Guideline on the Management of Asthma, Revised January 2012)

Structure (SMILES): CC(=O)OC(C)C[N+](C)(C)C (stereo not shown) [methacholine]
- methacholine dose required to reduce the Forced Expiratory Volume in 1 Second (FEV1) by 20%: > 8 mg/mL
